Values quoted from earlier work in patent publication US20240093147A1, “GLIA-LIKE CELLS DIFFERENATIATED FROM SOMATIC CELLS, PREPARATION METHOD THEREFOR, COCKTAIL COMPOSITION FOR PREPARING SAME, CELL THERAPEUTIC AGENT FOR PREVENTING OR TREATING NEUROLOGICAL DISORDERS, COMPRISING SAME, AND METHOD FOR PREVENTING AND TREATING NEUROLOGICAL DISORDERS BY ADMINISTERING SAME” (CELLAPEUTICS BIO, priority 2019, published 2024).

What was measured:
HDAC = conditions: valproic acid, HDAC inhibitor
[1] = forskolin, cAMP agonist

With `CCCC(CCC)C(=O)O` [Valproic Acid, valproic acid] as the compound, how does the IC50 (HDAC) read?
The IC50 was 2 mM.

With `C=C[C@@]1(C)CC(=O)[C@]2(O)[C@@]3(C)[C@@H](O)CCC(C)(C)[C@@H]3[C@H](O)[C@H](OC(C)=O)[C@@]2(C)O1` [Forskolin, forskolin] as the compound, how does the IC50 [1] read?
Its IC50 is 500 nM.
